Reference: patent publication US5250283A, “Organic contrast agent analog and method of making same” (priority 1992, dated 1993)
Like-named read-outs stand apart in the source and are kept apart here.

Legend:
[1] = Plasma concentration after i.v. IOP or TFA-IOP in rats; type: in vivo; conditions: plasma, iv, 100 umol/kg, rat
[2] = Tissue distribution 90 min after i.v. TFA-IOP (100 umol/kg) or IOP (100 in text, 104 umol/kg in tables) in rats; type: in vivo; conditions: rat; for concentration at 1.5 h: 100 umol/kg; for concentration at 1.5 h / uMoles per gram tissue / uMoles per kg / Percentage of dose in tissue: i.v.; for Percentage of dose in tissue: Table 6; for tissue uptake at 1.5 h: read-out: Percentage of dose per gram
Description: No standard curves were compiled for these tissues. The values given
represent concentrations generated using the LIVER analysis routine and
standard curve. Because this routine utilizes a control LIVER spectra for
background modeling, erroneous Iodine concentration values for these
tissues may result due to inappropriate background removal.

[3] = Biliary excretion and bile flow after i.v. TFA-IOP (100 umol/kg) or IOP (100 in text, 104 umol/kg in tables) in rats; conditions: for Percentage of dose per kg. body wt.: rat bile, i.v.
Description: Tissues examined included liver, spleen, upper GI, lower GI, kidney, lung and heart. The length of each study was 90 minutes, during which time bile, urine and plasma samples were taken to monitor uptake and excretion. NMR relaxation rates for liver and plasma were also examined to note whether uptake of either compound might possible alter these parameters.

## CCC(Cc1c(I)cc(I)c(N)c1I)C(=O)O (stereo not shown) [IOP, iopanoic acid, reference compound]
[1]; 30 min
  concentration at 0.5 h: 557 µM
[1]; 50 min
  concentration at 50 min: 508 µM
[1]; 60 min
  concentration at 1 h: 462 µM
[1]; 70 min
  concentration at 70 min: 462 µM
[1]; 80 min
  concentration at 80 min: 404 µM
[1]; 90 min
  concentration at 1.5 h: 373 µM
[2]; heart, iv, 90 min, liver standard curve used, may be erroneous, read-out: Heart concentration
  concentration at 1.5 h: 259 µM
[2]; 90 min, heart
  uMoles per gram tissue: .26 uMOLES per gram
  uMoles per kg: 259.38 uMOLES per kg
  Percentage of dose in tissue: .72 PERCENTAGE OF DOSE
[2]; 90 min, kidney
  uMoles per gram tissue: .11 uMOLES per gram
  uMoles per kg: 105.40 uMOLES per kg
  Percentage of dose in tissue: .69 PERCENTAGE OF DOSE
[2]; 90 min, liver
  uMoles per gram tissue: .51 uMOLES per gram
  uMoles per kg: 511.90 uMOLES per kg
  Percentage of dose in tissue: 14.52 PERCENTAGE OF DOSE
[2]; 90 min, lower GI
  uMoles per gram tissue: .14 uMOLES per gram
  uMoles per kg: 135.23 uMOLES per kg
  Percentage of dose in tissue: .59 PERCENTAGE OF DOSE
[2]; 90 min, lung
  uMoles per gram tissue: .32 uMOLES per gram
  uMoles per kg: 324.91 uMOLES per kg
  Percentage of dose in tissue: 1.21 PERCENTAGE OF DOSE
[2]; 90 min, spleen
  uMoles per gram tissue: .26 uMOLES per gram
  uMoles per kg: 255.54 uMOLES per kg
  Percentage of dose in tissue: .45 PERCENTAGE OF DOSE
[2]; 90 min, upper GI
  uMoles per gram tissue: .31 uMOLES per gram
  uMoles per kg: 307.91 uMOLES per kg
  Percentage of dose in tissue: 1.31 PERCENTAGE OF DOSE
[2]; in vivo, iv, 90 min
  % of dose in heart: 0.72%
  % of dose in kidney: 0.69%
  % of dose in liver: 14.53%
  % of dose in lower GI: 0.59%
  % of dose in lung: 1.21%
  % of dose in spleen: 0.45%
  % of dose in upper GI: 1.31%
[2]; in vivo, iv, 90 min, heart
  tissue uptake at 1.5 h: 0.61 %ID/g
[2]; in vivo, iv, 90 min, kidney
  tissue uptake at 1.5 h: 0.25 %ID/g
[2]; in vivo, iv, 90 min, liver
  tissue uptake at 1.5 h: 1.21 %ID/g
[2]; in vivo, iv, 90 min, lower GI
  tissue uptake at 1.5 h: 0.32 %ID/g
[2]; in vivo, iv, 90 min, lung
  tissue uptake at 1.5 h: 0.77 %ID/g
[2]; in vivo, iv, 90 min, spleen
  tissue uptake at 1.5 h: 0.61 %ID/g
[2]; in vivo, iv, 90 min, upper GI
  tissue uptake at 1.5 h: 0.73 %ID/g
[2]; kidney, iv, 90 min post injection, read-out: Kidney concentration
  concentration at 1.5 h: 105 µM
[2]; kidney, iv, 90 min post injection, read-out: kidney concentration
  concentration at 1.5 h: 105 µM
[2]; liver, iv, 90 min post injection, read-out: Liver concentration
  concentration at 1.5 h: 512 µM
[2]; liver, iv, 90 min post injection, read-out: liver concentration
  concentration at 1.5 h: 512 µM
[2]; lower gi, iv, 90 min, liver standard curve used, may be erroneous, read-out: Lower GI concentration
  concentration at 1.5 h: 135 µM
[2]; lung, iv, 90 min, liver standard curve used, may be erroneous, read-out: Lung concentration
  concentration at 1.5 h: 325 µM
[2]; spleen, iv, 90 min, liver standard curve used, may be erroneous, read-out: Spleen concentration
  concentration at 1.5 h: 256 µM
[2]; upper gi, iv, 90 min, liver standard curve used, may be erroneous, read-out: Upper GI concentration
  concentration at 1.5 h: 308 µM
[3]; 0-10 min
  Percentage of dose per kg. body wt.: 1.29 PERCENTAGE OF DOSE per kg. bod
[3]; 10-20 min
  Percentage of dose per kg. body wt.: 4.38 PERCENTAGE OF DOSE per kg. bod
[3]; 20-30 min
  Percentage of dose per kg. body wt.: 6.60 PERCENTAGE OF DOSE per kg. bod
[3]; 30-40 min
  Percentage of dose per kg. body wt.: 5.61 PERCENTAGE OF DOSE per kg. bod
[3]; 40-50 min
  Percentage of dose per kg. body wt.: 6.55 PERCENTAGE OF DOSE per kg. bod
[3]; 50-60 min
  Percentage of dose per kg. body wt.: 3.86 PERCENTAGE OF DOSE per kg. bod
[3]; 60-70 min
  Percentage of dose per kg. body wt.: 4.71 PERCENTAGE OF DOSE per kg. bod
[3]; 70-80 min
  Percentage of dose per kg. body wt.: 4.61 PERCENTAGE OF DOSE per kg. bod
[3]; 80-90 min
  Percentage of dose per kg. body wt.: 5.45 PERCENTAGE OF DOSE per kg. bod
[3]; rat, bile, iv, 100 umol/kg
  Cmax at 1.5 h: 10000 µM
  concentration at 5 min: 1610 µM
  concentration at 10 min: 1610 µM
  concentration at 0.25 h: 8660 µM
  concentration at 20 min: 8660 µM
